# Source: publication PMC12155096 (International Journal of Molecular Sciences, 2025)
# Key:
# [1] = target: human CYP2C19 (Homo sapiens, UniProt P33261)
# [2] = target: CYP3A4 (Homo sapiens, UniProt P08684)
# [3] = target: T1, human CYP1A2 (Homo sapiens, UniProt P05177)
# T1 sequence (P05177 1-516): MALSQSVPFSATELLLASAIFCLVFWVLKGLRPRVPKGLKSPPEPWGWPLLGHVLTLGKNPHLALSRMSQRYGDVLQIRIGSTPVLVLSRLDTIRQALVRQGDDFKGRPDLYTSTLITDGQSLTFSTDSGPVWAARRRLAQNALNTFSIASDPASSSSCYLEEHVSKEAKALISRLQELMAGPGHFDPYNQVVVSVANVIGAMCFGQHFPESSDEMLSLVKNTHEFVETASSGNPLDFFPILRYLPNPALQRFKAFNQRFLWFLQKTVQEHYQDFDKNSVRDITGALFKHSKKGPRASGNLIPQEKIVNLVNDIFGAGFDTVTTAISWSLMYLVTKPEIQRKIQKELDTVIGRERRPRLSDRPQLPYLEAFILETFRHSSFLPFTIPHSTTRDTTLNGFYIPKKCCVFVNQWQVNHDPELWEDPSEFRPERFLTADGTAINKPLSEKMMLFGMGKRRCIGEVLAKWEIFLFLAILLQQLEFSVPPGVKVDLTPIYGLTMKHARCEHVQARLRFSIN
# [4] = target: human CYP2C9 (Homo sapiens, UniProt P11712)
# human CYP2C9, sequence (P11712 whole entry): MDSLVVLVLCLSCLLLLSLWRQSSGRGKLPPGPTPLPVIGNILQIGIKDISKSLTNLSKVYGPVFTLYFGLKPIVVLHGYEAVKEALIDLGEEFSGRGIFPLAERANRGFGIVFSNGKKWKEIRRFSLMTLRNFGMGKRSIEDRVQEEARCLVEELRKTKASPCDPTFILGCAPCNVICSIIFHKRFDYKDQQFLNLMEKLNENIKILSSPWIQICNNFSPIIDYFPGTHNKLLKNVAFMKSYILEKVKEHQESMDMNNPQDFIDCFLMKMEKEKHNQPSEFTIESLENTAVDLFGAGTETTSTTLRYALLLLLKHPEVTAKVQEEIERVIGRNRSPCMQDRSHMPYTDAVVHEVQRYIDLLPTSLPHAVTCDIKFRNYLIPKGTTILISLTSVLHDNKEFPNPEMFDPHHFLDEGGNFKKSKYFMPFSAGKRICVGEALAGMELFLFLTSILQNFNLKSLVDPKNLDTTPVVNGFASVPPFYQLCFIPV
# [5] = target: human CYP2D6 (Homo sapiens, UniProt P10635)
# human CYP2D6, sequence (P10635 whole entry): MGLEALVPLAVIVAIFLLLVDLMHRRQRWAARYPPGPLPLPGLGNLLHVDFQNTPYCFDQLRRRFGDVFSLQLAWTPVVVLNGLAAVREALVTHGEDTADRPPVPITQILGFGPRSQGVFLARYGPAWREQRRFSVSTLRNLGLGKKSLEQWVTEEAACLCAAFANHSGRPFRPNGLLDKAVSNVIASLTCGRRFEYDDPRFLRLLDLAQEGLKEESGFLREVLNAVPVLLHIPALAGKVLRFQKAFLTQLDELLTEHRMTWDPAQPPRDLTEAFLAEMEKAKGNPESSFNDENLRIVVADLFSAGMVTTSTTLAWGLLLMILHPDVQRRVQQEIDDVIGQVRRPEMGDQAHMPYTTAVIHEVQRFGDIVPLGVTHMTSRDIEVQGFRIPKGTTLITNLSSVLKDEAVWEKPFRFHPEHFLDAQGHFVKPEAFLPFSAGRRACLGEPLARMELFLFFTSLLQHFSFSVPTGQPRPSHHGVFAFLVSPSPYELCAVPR
# human CYP2C19, sequence (P33261 whole entry): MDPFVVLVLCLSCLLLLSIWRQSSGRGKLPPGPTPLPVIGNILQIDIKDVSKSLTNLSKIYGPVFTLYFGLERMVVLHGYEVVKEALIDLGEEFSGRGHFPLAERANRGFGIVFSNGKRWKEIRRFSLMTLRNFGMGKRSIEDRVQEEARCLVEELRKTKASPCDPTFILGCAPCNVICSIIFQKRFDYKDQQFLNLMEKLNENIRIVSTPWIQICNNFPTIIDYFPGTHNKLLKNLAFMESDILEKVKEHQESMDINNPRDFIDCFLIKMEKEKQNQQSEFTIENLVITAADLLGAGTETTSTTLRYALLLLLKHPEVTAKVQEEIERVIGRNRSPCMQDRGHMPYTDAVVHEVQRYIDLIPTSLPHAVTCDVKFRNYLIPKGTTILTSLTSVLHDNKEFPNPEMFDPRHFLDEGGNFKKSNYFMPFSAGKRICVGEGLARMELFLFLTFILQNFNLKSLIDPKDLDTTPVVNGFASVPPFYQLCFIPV
# CYP3A4, sequence (P08684 whole entry): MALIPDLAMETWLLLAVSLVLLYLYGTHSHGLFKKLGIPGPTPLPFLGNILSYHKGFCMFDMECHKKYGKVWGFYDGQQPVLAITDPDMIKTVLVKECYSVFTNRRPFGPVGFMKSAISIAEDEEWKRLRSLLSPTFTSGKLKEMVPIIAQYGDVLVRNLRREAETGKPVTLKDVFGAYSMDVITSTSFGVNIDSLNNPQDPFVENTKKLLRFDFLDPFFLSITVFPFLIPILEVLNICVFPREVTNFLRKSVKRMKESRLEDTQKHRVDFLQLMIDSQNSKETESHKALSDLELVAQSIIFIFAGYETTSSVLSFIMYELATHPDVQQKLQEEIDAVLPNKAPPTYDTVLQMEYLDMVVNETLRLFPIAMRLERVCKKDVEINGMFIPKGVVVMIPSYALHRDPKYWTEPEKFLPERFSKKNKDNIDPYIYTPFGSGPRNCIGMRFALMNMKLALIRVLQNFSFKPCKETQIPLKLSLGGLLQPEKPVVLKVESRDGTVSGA
molecule,measurement,setting,value
C1CC(COCC2CO2)CCC1COCC1CO1 (stereo not drawn),CYP2C19 AC50 (half-maximal activity concentration),[1],Inconclusive inhibitor
same,AC50,[2],73.9 µM
same,CYP1A2 AC50 (half-maximal activity concentration),[3],Inconclusive inhibitor
same,AC50,[4],56.6 µM
same,CYP2D6 AC50 (half-maximal activity concentration),[5],Inactive
CCN(CC)c1ccc(C=O)c(O)c1 [4-(Diethylamino)salicylaldehyde],AC50,[1],50.6 µM
same,CYP3A4 AC50 (half-maximal activity concentration),[2],Inactive
same,AC50,[3],16.4 µM
same,AC50,[4],22.8 µM
same,CYP2D6 AC50 (half-maximal activity concentration),[5],Inactive
CC1(C)[C@@H](O[C@H]2O[C@H](C(=O)O)[C@@H](O)[C@H](O)[C@H]2O[C@@H]2O[C@H](C(=O)O)[C@@H](O)[C@H](O)[C@H]2O)CC[C@]2(C)[C@H]3C(=O)C=C4[C@@H]5C[C@@](C)(C(=O)O)CC[C@]5(C)CC[C@@]4(C)[C@]3(C)CC[C@@H]12.N.O.O.O [Ammonium glycyrrhizinate trihydrate],CYP2C19 AC50 (half-maximal activity concentration),[1],Inconclusive inhibitor
same,AC50,[2],23.5 µM
same,CYP1A2 AC50 (half-maximal activity concentration),[3],Inconclusive inhibitor
same,CYP2C9 AC50 (half-maximal activity concentration),[4],Inactive
same,CYP2D6 AC50 (half-maximal activity concentration),[5],Inactive
CC(C)(COC(=O)c1ccccc1)COC(=O)c1ccccc1 [Neopentyl glycol dibenzoate],AC50,[1],20.8 µM
same,AC50,[2],35.7 µM
same,AC50,[3],47.7 µM
same,AC50,[4],6.58 µM
same,CYP2D6 AC50 (half-maximal activity concentration),[5],Inactive
CC(c1ccc(O)cc1)c1ccc(O)cc1 [Bisphenol E],AC50,[1],33.5 µM
same,CYP3A4 AC50 (half-maximal activity concentration),[2],Inconclusive inhibitor
same,CYP1A2 AC50 (half-maximal activity concentration),[3],Inactive
same,AC50,[4],38.6 µM
same,CYP2D6 AC50 (half-maximal activity concentration),[5],Inactive
CCOC(=O)c1ccc(O)c(O)c1 [Ethyl protocatechuate],CYP2C19 AC50 (half-maximal activity concentration),[1],Inactive
same,CYP3A4 AC50 (half-maximal activity concentration),[2],Inactive
same,AC50,[3],27.2 µM
same,AC50,[4],32.2 µM
same,CYP2D6 AC50 (half-maximal activity concentration),[5],Inactive
CN1CCC(Nc2ncc3ncnc(Nc4ccc(F)c(Cl)c4)c3n2)CC1.Cl.Cl [Falnidamol dihydrochloride],CYP2C19 AC50 (half-maximal activity concentration),[1],Inactive
same,AC50,[2],14.4 µM
same,CYP1A2 AC50 (half-maximal activity concentration),[3],Inactive
same,CYP2C9 AC50 (half-maximal activity concentration),[4],Inactive
same,AC50,[5],18.4 µM
"O=C1OC(=O)c2cc(Oc3ccc4c(c3)C(=O)OC4=O)ccc21 [5,5'-Oxybis(2-benzofuran-1,3-dione)]",CYP2C19 AC50 (half-maximal activity concentration),[1],Inconclusive inhibitor
same,AC50,[2],30.8 µM
same,CYP1A2 AC50 (half-maximal activity concentration),[3],Inactive
same,CYP2C9 AC50 (half-maximal activity concentration),[4],Inactive
same,CYP2D6 AC50 (half-maximal activity concentration),[5],Inactive
C/C=C(\C)C(=O)OCc1ccccc1 [Benzyl tiglate],CYP2C19 AC50 (half-maximal activity concentration),[1],Inconclusive inhibitor
same,AC50,[2],39 µM
same,AC50,[3],37 µM
same,CYP2C9 AC50 (half-maximal activity concentration),[4],Inactive
same,CYP2D6 AC50 (half-maximal activity concentration),[5],Inactive
CCCCCCCCCCCC(=O)O.OCCN(CCO)CCO [Triethanolamine Laurate],AC50,[1],135 µM
same,AC50,[2],89.2 µM
same,CYP1A2 AC50 (half-maximal activity concentration),[3],Inconclusive inhibitor
same,AC50,[4],115 µM
same,CYP2D6 AC50 (half-maximal activity concentration),[5],Inactive
CCCCCCCCCCCCCC[N+](C)(C)Cc1ccccc1.O.O.[Cl-],CYP2C19 AC50 (half-maximal activity concentration),[1],Inactive
same,AC50,[2],11.3 µM
same,CYP1A2 AC50 (half-maximal activity concentration),[3],Inactive
same,AC50,[4],40.7 µM
same,AC50,[5],2.01 µM
CCCCCCCCS(=O)(=O)[O-].[Na+] [Sodium 1-octanesulfonate],CYP2C19 AC50 (half-maximal activity concentration),[1],Inactive
same,AC50,[2],33.1 µM
same,CYP1A2 AC50 (half-maximal activity concentration),[3],Inactive
same,AC50,[4],44.1 µM
same,CYP2D6 AC50 (half-maximal activity concentration),[5],Inactive
"COC(OC)(C(=O)c1ccccc1)c1ccccc1 [2,2-Dimethoxy-1,2-diphenylethanone]",AC50,[1],15.9 µM
same,AC50,[2],10.2 µM
same,CYP1A2 AC50 (half-maximal activity concentration),[3],Inactive
same,AC50,[4],22.5 µM
same,AC50,[5],34.6 µM
O=C(C=Cc1ccccc1)OCCCc1ccccc1 [3-Phenylpropyl cinnamate],AC50,[1],30.1 µM
same,AC50,[2],25.2 µM
same,AC50,[3],12.2 µM
same,AC50,[4],19.4 µM
same,CYP2D6 AC50 (half-maximal activity concentration),[5],Inactive
"C=C(C)C(=O)OCCCCCCCCCCOC(=O)C(=C)C [1,10-Decanediol dimethacrylate]",CYP2C19 AC50 (half-maximal activity concentration),[1],Inconclusive inhibitor
same,AC50,[2],46.2 µM
same,AC50,[3],40.1 µM
same,CYP2C9 AC50 (half-maximal activity concentration),[4],Inconclusive inhibitor
same,AC50,[5],37 µM
CCCCCCCCCCCCCOP(=O)(O)O [Monotridecyl phosphate],AC50,[1],45.5 µM
same,AC50,[2],89.4 µM
same,AC50,[3],65.1 µM
same,AC50,[4],56.7 µM
same,CYP2D6 AC50 (half-maximal activity concentration),[5],Inactive
CCC(=O)OCCOc1ccccc1 [Phenoxyethyl propionate],CYP2C19 AC50 (half-maximal activity concentration),[1],Inconclusive inhibitor
same,AC50,[2],47.1 µM
same,AC50,[3],55.5 µM
same,CYP2C9 AC50 (half-maximal activity concentration),[4],Inconclusive
same,CYP2D6 AC50 (half-maximal activity concentration),[5],Inactive
CC(C)(C)C1=CC(=O)C(C(C)(C)C)=CC1=O,AC50,[1],7.8 µM
same,AC50,[2],6.47 µM
same,AC50,[3],16.1 µM
same,AC50,[4],20.8 µM
same,CYP2D6 AC50 (half-maximal activity concentration),[5],Inconclusive inhibitor
CCCC(C)c1ccccc1O (stereo not drawn) [2-(1-Methylbutyl)phenol],AC50,[1],10.9 µM
same,CYP3A4 AC50 (half-maximal activity concentration),[2],Inactive
same,AC50,[3],56.6 µM
same,AC50,[4],49 µM
same,CYP2D6 AC50 (half-maximal activity concentration),[5],Inactive
"O=C(O)c1cc2ccccc2nc1C(=O)O [2,3-Quinolinedicarboxylic acid]",CYP2C19 AC50 (half-maximal activity concentration),[1],Inactive
same,AC50,[2],25.2 µM
same,AC50,[3],47.9 µM
same,CYP2C9 AC50 (half-maximal activity concentration),[4],Inactive
same,CYP2D6 AC50 (half-maximal activity concentration),[5],Inactive
CCCOC(=O)c1c(Cl)c(Cl)c(Cl)c(Cl)c1C(=O)OCCC,AC50,[1],12.5 µM
same,AC50,[2],2.63 µM
same,AC50,[3],1.72 µM
same,AC50,[4],20.1 µM
same,CYP2D6 AC50 (half-maximal activity concentration),[5],Inconclusive inhibitor
"O=C(OCCCCCCOC(=O)c1ccccc1)c1ccccc1 [Hexane-1,6-diyl dibenzoate]",AC50,[1],83.2 µM
same,AC50,[2],24 µM
same,AC50,[3],3.43 µM
same,AC50,[4],10.6 µM
same,CYP2D6 AC50 (half-maximal activity concentration),[5],Inactive
C/C=C1\C(=O)C[C@H]2[C@@H]3CCC4=CC(=O)CC[C@]4(C)[C@H]3CC[C@]12C [Guggulsterone Z],AC50,[1],6.83 µM
same,AC50,[2],3.8 µM
same,CYP1A2 AC50 (half-maximal activity concentration),[3],Inactive
same,AC50,[4],24.8 µM
same,CYP2D6 AC50 (half-maximal activity concentration),[5],Inactive
Mancozeb,AC50,[1],4.72 µM
same,AC50,[2],5.17 µM
same,AC50,[3],14.9 µM
same,AC50,[4],3.48 µM
same,CYP2D6 AC50 (half-maximal activity concentration),[5],Inconclusive inhibitor
CC(=O)O[C@H]1CC[C@@]2(C)C(=CC[C@@H]3[C@@H]2CC[C@]2(C)C(C(C)=O)=CC[C@@H]32)C1 [Dehydropregnenolone acetate],CYP2C19 AC50 (half-maximal activity concentration),[1],Inactive
same,AC50,[2],4.44 µM
same,CYP1A2 AC50 (half-maximal activity concentration),[3],Inactive
same,CYP2C9 AC50 (half-maximal activity concentration),[4],Inactive
same,CYP2D6 AC50 (half-maximal activity concentration),[5],Inactive
Cc1cc(C)nc(O)n1.O=C(Nc1ccc([N+](=O)[O-])cc1)Nc1ccc([N+](=O)[O-])cc1 [Nicarbazin],CYP2C19 AC50 (half-maximal activity concentration),[1],Inconclusive inhibitor
same,AC50,[2],7.42 µM
same,CYP1A2 AC50 (half-maximal activity concentration),[3],Inactive
same,CYP2C9 AC50 (half-maximal activity concentration),[4],Inactive
same,CYP2D6 AC50 (half-maximal activity concentration),[5],Inactive
N.N.O=C([O-])C1(C(=O)[O-])CCC1.[Pt+2] [Carboplatin],AC50,[1],17.7 µM
same,AC50,[2],31.3 µM
same,AC50,[3],15.6 µM
same,AC50,[4],9.46 µM
same,AC50,[5],28.7 µM
"O=C(O)c1cc(Br)c(O)c(Br)c1 [3,5-Dibromo-4-hydroxybenzoic acid]",AC50,[1],23.8 µM
same,AC50,[2],35.7 µM
same,AC50,[3],35.7 µM
same,AC50,[4],68.4 µM
same,CYP2D6 AC50 (half-maximal activity concentration),[5],Inconclusive inhibitor
BrCc1cccc(Oc2ccccc2)c1 [1-(Bromomethyl)-3-phenoxybenzene],AC50,[1],19.9 µM
same,AC50,[2],80 µM
same,AC50,[3],41.5 µM
same,AC50,[4],82.9 µM
same,AC50,[5],50.3 µM
COC(=O)c1cc(S(N)(=O)=O)ccc1OC [Methyl 5-sulfamoyl-o-anisate],CYP2C19 AC50 (half-maximal activity concentration),[1],Inactive
same,CYP3A4 AC50 (half-maximal activity concentration),[2],Inactive
same,CYP1A2 AC50 (half-maximal activity concentration),[3],Inactive
same,AC50,[4],30.9 µM
same,CYP2D6 AC50 (half-maximal activity concentration),[5],Inactive
"O=C(Nc1ccc([N+](=O)[O-])cc1)Nc1ccc([N+](=O)[O-])cc1 [4,4'-Dinitrodiphenylurea]",CYP2C19 AC50 (half-maximal activity concentration),[1],Inactive
same,AC50,[2],11 µM
same,CYP1A2 AC50 (half-maximal activity concentration),[3],Inactive
same,CYP2C9 AC50 (half-maximal activity concentration),[4],Inactive
same,CYP2D6 AC50 (half-maximal activity concentration),[5],Inactive
O=C(O)c1cc(C(=O)O)cc([N+](=O)[O-])c1 [5-Nitroisophthalic acid],CYP2C19 AC50 (half-maximal activity concentration),[1],Inconclusive activator
same,AC50,[2],5.59 µM
same,CYP1A2 AC50 (half-maximal activity concentration),[3],Inconclusive inhibitor
same,CYP2C9 AC50 (half-maximal activity concentration),[4],Inactive
same,CYP2D6 AC50 (half-maximal activity concentration),[5],Inactive
Naphthenic acids,AC50,[1],46.4 µM
same,AC50,[2],84.8 µM
same,AC50,[3],59.4 µM
same,AC50,[4],36.4 µM
same,CYP2D6 AC50 (half-maximal activity concentration),[5],Inactive
